We go through 16 compounds from patent US20130039956A1, “USE OF NITROCARBOXYLIC ACIDS FOR THE TREATMENT, DIAGNOSIS AND PROPHYLAXIS OF AGGRESSIVE HEALING PATTERNS” (priority 2010, published 2013).

In one assay the test system is fibroblasts. Put plainly: Biofouling and cell adherence at prosthetic materials (dip-coated polymer films). It is filed as cell-based. The note with it: compared with native FA (control). As to the method: Polymer scaffolds (polyurethane, polyvinylchloride, polylactate) which are used as implant materials were investigated. Solid and porous (pore sizes ranging from 50 to 150 micrometer) films of pure polymer scaffolds were cut into pieces (5×5 mm). After cleaning with NaOH and ethanol, they were dip-coated with native and nitrocarboxylic acids. Dip-coated pieces were suspended in a tube filled with argon and heated at 60° C. for 24 hours in the dark. Film pieces with and without coating were placed in a borosilicate glass tube that allowed fixation of two margins of the film pieces at the wall of the glass tube, thus, enabling a upright standing position in the center of the tube. Tubes were filled with various solutions for 12 hours. Solutions consisted of the following: 0.9% saline; 2% bovine albumin; 2% bovine albumin with addition of either fibronectin or laminin; and bovine serum. At the end of the exposure time, tubes were gently washed twice with 0.9% saline solution. One set of films was analyzed for protein absorption using a specific antibody staining method. An identically prepared set of films was further processed for cell cultures. A suspension containing preincubated fibroblasts in 1% FCS was added to the film-containing tubes. The tubes were tilted and adjusted in such a position so that the films were in a vertical orientation within the suspension. […] Tubes had two openings at the upper half (of the tilt tubes) that allowed free exchange of the atmosphere above the solution with the surrounding atmosphere. Sets were incubated at standard conditions for 24, 48, and 96 hours, respectively. Thereafter, films were carefully removed and rinsed with 0.9% saline solution. The cellularity and the shape of the cells on both sides of the films were evaluated after staining (Gimsa) using a reflected light microscope.

The test system of assay [1] is Human peripheral blood mononuclear cells (PBMCs). Nature of the assay: Adhesion of serum proteins and monocyte activation induced by coated silicone. Conditions: dip-coated silicone, PBMCs 3 days; compared with native FA. The class given is cell-based. How it is done: In order to determine the effect of coating implant materials with nitro fatty acids to reduce adsorption of adhesion molecules and monocyte activation, sterile silicone sheets were out in small pieces and coated with respective nirocarboxylic acid and the corresponding native fatty acids by dip coating. Uncoated silicone pieces served as controls. For each fatty acid two sets of silicone pieces were bathed in freshly drawn human serum for 1 hour at 37° C., and another two sets were bathed in saline solutions. One set of both coated and uncoated pieces was analyzed immediately for adhesion proteins and the other set was placed in 96-well plates after rinsing the silicone pieces. Human peripheral blood mononuclear cells (PBMCs), isolated from three healthy subjects, were added to each well. Wells were incubated for 3 days under standard conditions. Culture supernatants were assayed for IL-1beta, IL-6, IL-8, and chemoattractant protein 1 (MCP-1) levels at the start and end of experiments.
Before analyzing the silicone pieces for protein adsorption, they were bathed in saline for 5 minutes. Thereafter, one side was rinsed with saline as performed for both sides in the set used for culturing. There was marked adsorption of fibrinogen and […] C5b-9 on the uncoated silicone. […] No protein was found on the surface of the nitro fatty acid-coated sample that was rinsed, thus, indicating the weak adherence of serum proteins.

The test system of another assay is human dermal fibroblasts. Nature of the assay: Extra cellular matrix production (collagen-1) in response to TGF-β2 in dermal fibroblasts. It is filed as cell-based. The note with it: 10 and 50 μmol, TGF-β2 25 ng/ml, 48 hours; compared with native FA. How it is done: In order to determine whether PPRA gamma stimulation due to nitrated fatty acids plays a role in the inventive inhibition of an aggressive healing pattern to an irritating stimulus, human dermal fibroblasts were investigated. A dominant-negative PPAR gamma mutant (L466A) cell clone was generated by polymerase chain reaction-based site-directed mutagenesis. Presence of PPAR gamma or absence was investigated using a PPAR gamma antibody reaction which was determined using an enhanced chemiluminescence detection system. Furthermore, one cell series was incubated with a selective irreversible PPAR gamma ligand (GW9662, 1 μmol), which effectively blocks PPAR gamma receptors.
Sequential cultivation of human dermal fibroblasts was performed in EMEM containing 5 mM glucose supplemented with 10% FCS under standard cultivation conditions. Cells were allowed to grow to confluence in a 96-well plate. Wild-type fibroblasts and PPAR gamma deficient fibroblasts were investigated by a set-up of 2×10 sample sets comprising: (1) blank control; (2) stimulation control; (3) preincubation with the PPAR gamma antagonist GW9662 (Cayman Chemical); (4) preincubation with the PPAR agonist troglitazone (25 μmol). In 2×4 sample sets, native fatty acids were added to the medium to achieve a final concentration of 10 and 50 μmol, respectively; in another 2×4 sets the nitrated fatty acids were added to the medium in the same concentration, while 2×2 sets served as controls. In 10 of the sets, TGF-β2 was added to the culture medium at a concentration of 25 ng/ml. Cultivation was continued for 48 hours and then processed in order to analyze collagen-1 as measured by enhanced chemiluminescence detection of immuncomplexes.

Assay [2] deals with female Sprague-Dawley rats. Nature of the assay: Fibrogenesis in an in-vivo model of soft implant implantation. Details: species or system rat. Conditions: subcutaneous implants, 120 days, compared with native FA. How it is done: Silicone bag-gel miniprostheses (POLYTECH Health & Aesthetics GmbH, Dieburg, Germany) having a diameter of 2 cm and a volume of approximately 2 ml were used. […] The experimentally used implant models had two small tags which allowed the implants to be suspended during the coating procedures.
Each implant was treated in the following manner: cleaning by sonication for 2 min each in the following sequence of solvents: acetone, toluene, acetone, ethanol, and water. Implants were exposed to Piranha solution for 60 min and rinsed with deionized water. They were then immersed in a 20% aqueous solution of ammonium fluoride for 45 min to obtain a hydrogen-passivated Si surface. The ammonium fluoride solution was sparged with nitrogen for 15 min to remove dissolved oxygen. Prepared implants were transferred to a glass chamber filled with an inert atmosphere where they were suspended so that no part of their surface came in contact with the container. The container was filled with a 1-hexadecene solution and heated at 150° C. at a pressure of 2 Torr for 120 min. Prepared implants were cleaned in the following sequence of solvents: acetone, ethanol, and water. Formation of self assembled monolayer was controlled by measuring surface hydrophobicity; the contact angle was about 105°. Dry implants suspended in the container were then bathed in an ethanolic solution of oleic acid or nitro-oleic acid at a temperature of 40° C. for 120 min. Thereafter, the solution was allowed to run out slowly through an outlet at the bottom of the container. The emptying container was filled with inert gas in which the samples were maintained for 24 hours. Then samples were bathed three times in an ethanolic solution, followed by a final rinsing with sterile water. After drying, the container with the prepared implant was sterilized using ethylene oxide and stored at 20° C.
For in vivo testing, 24 uncoated and 24 coated implants were investigated in 24 female Sprague-Dawley rats (190-230 g). In the anesthetized animals, bilateral dorsal pockets in the subcutaneum were created by blunt dissection through paired paravertebral incisions. Each animal received one coated implant and one control implant on opposite sides, alternating sides on successive animals. Animals were housed and fed according to institutional standards for 120 days. Animals were sacrificed with chloroform. The implants and the adhering tissue were extracted by en bloc resection. The implants were cannulated and the liquid silicone gel was replaced by paraffin. Thereafter, the complete tissue block was prepared by standard means of histology, and stained with H&E or Masson's trichrome.
Also: key: 0: not superior to native FA (control); +: Superior to native FA; ++: superior to both; +++: outstanding effect.

Turning to “5-nitro-eicosatrienoic acid [compound 4]”, the “Relative differences: effect on biofouling and cell adherence” value (“Relative differences: effect” below) with fibroblasts is reported as “+”. The “Relative effect on serum protein adhesion and monocyte activation” value in assay [1] is recorded as “+”. Also, the “Relative effect on collagen-1 production in response to TGF-β2” value (from here on “Relative effect on collagen-1 production”) with human dermal fibroblasts was “+”.
As for 9,10-nitro-cis-oleic acid [compound 10], the “Relative differences: effect” value with fibroblasts is “+++”. In assay [1], the “Relative effect on serum protein adhesion and monocyte activation” value is recorded as “++”. Moreover, the “Relative effect of surface coating on fibrogenesis around silicone implants” value (from here on “Relative effect of surface coating”) in assay [2] is listed as “++”. In the assay on human dermal fibroblasts, the “Relative effect on collagen-1 production” value is recorded as “++”.
For “9,10-nitro-trans-oleic acid [compound 15]”, in the assay with fibroblasts, the “Relative differences: effect” value is reported as “++”. The “Relative effect on serum protein adhesion and monocyte activation” value in assay [1] was “+”. In addition, the “Relative effect of surface coating” value in assay [2] is given as “+”. Also, the “Relative effect on collagen-1 production” value with human dermal fibroblasts is “+”.
As for `CCCCCCCC/C=C(/CCCCCCCC(=O)O)[N+](=O)[O-]` [compound 1, 9-nitro cis-oleic acid], the “Relative differences: effect” value in the assay on fibroblasts was “++”. In addition, in assay [1], the “Relative effect on serum protein adhesion and monocyte activation” value is “+++”. The “Relative effect of surface coating” value in assay [2] is on record as “++”. Further, in the assay on human dermal fibroblasts, the “Relative effect on collagen-1 production” value is listed as “+++”.
For the compound `CCCCC/C=C\C/C(=C\CCCCCCCC(=O)O)[N+](=O)[O-]` [compound 2, 10-nitro-cis-linoleic acid], the “Relative differences: effect” value with fibroblasts was “++”. The “Relative effect on serum protein adhesion and monocyte activation” value in assay [1] is “++”. Besides, the “Relative effect of surface coating” value in assay [2] is “++”. Besides, the “Relative effect on collagen-1 production” value in the assay with human dermal fibroblasts is “++”.
In the case of `CCCCCCCC/C(=C/CCCCCCCC(=O)O)[N+](=O)[O-]` [compound 3, 10-nitro-cis-oleic acid], in the assay with fibroblasts, the “Relative differences: effect” value is given as “++”. In assay [1], the “Relative effect on serum protein adhesion and monocyte activation” value is given as “++”. Moreover, the “Relative effect of surface coating” value in assay [2] is “++”. In addition, in the assay with human dermal fibroblasts, the “Relative effect on collagen-1 production” value was “++”.
Take `CCCCC/C=C(/C/C=C\C/C=C\C/C=C\C/C=C\CCC(=O)O)[N+](=O)[O-]` [compound 5, 16-nitro-all-cis-4,7,10,13,16-docosapentaenoic acid]: in the assay on fibroblasts, the “Relative differences: effect” value is “++”. Further, in assay [1], the “Relative effect on serum protein adhesion and monocyte activation” value is recorded as “+”. Further, in the assay on human dermal fibroblasts, the “Relative effect on collagen-1 production” value is reported as “+”.
In the case of `CC/C=C\C/C=C\C/C=C(/CCCCCCCC(=O)O)[N+](=O)[O-]` [compound 6, 9-nitro-all-cis-9-12,15-octadecatrienoic acid], in the assay with fibroblasts, the “Relative differences: effect” value is on record as “++”. Moreover, the “Relative effect on serum protein adhesion and monocyte activation” value in assay [1] was “+”. For the same compound, the “Relative effect of surface coating” value in assay [2] is on record as “++”. For the same compound, the “Relative effect on collagen-1 production” value in the assay on human dermal fibroblasts is “++”.
As for `CC/C=C\C/C=C\C/C(=C/C/C=C\C/C=C\CCCCCC(=O)O)[N+](=O)[O-]` [compound 7, 14-nitro-all-cis-7,10,13,16,19-docosapentaenoic acid], in the assay with fibroblasts, the “Relative differences: effect” value is listed as “++”. The “Relative effect on serum protein adhesion and monocyte activation” value in assay [1] came out at 0. In addition, the “Relative effect on collagen-1 production” value with human dermal fibroblasts is given as “+”.
`CCCCCCCC/C=C(/CCCCCCCCCCCCCC(=O)O)[N+](=O)[O-]` [compound 8, 15-nitro-cis-15-tetracosenoic acid]: the “Relative differences: effect” value with fibroblasts was “+”. Besides, the “Relative effect on serum protein adhesion and monocyte activation” value in assay [1] was “+”. In assay [2], the “Relative effect of surface coating” value is on record as “+”. Moreover, the “Relative effect on collagen-1 production” value in the assay on human dermal fibroblasts was determined as 0.
For `CCCCCCCC/C=C(\CCCCCCCC(=O)O)[N+](=O)[O-]` [compound 9, 9-nitro-trans-oleic acid], in the assay on fibroblasts, the “Relative differences: effect” value is reported as “+”. In addition, the “Relative effect on serum protein adhesion and monocyte activation” value in assay [1] is recorded as “+”. Further, the “Relative effect of surface coating” value in assay [2] is “+”. Besides, the “Relative effect on collagen-1 production” value with human dermal fibroblasts is listed as “+”.
Consider `CCCCCCCC/C(=C\CCCCCCCC(=O)O)[N+](=O)[O-]` [compound 12, 10-nitro-trans-oleic acid], for which, in the assay with fibroblasts, the “Relative differences: effect” value was “+”. In addition, the “Relative effect on serum protein adhesion and monocyte activation” value in assay [1] was 0. Further, the “Relative effect on collagen-1 production” value in the assay on human dermal fibroblasts is “+”.
Regarding `CCCCCCCC/C=C(/CCCCCCCCCCCC(=O)O)[N+](=O)[O-]` [compound 17, 13-nitro-cis-13-docosenoic acid], the “Relative differences: effect” value in the assay on fibroblasts is listed as “+”. For the same compound, in assay [1], the “Relative effect on serum protein adhesion and monocyte activation” value is given as “+”. Also, in the assay with human dermal fibroblasts, the “Relative effect on collagen-1 production” value is on record as “+”.
Regarding `CCCCC/C=C(/C/C=C\C/C=C(/C/C=C\CCCC(=O)O)[N+](=O)[O-])[N+](=O)[O-]` [compound 18, 8,14-nitro-cis-5,8,11,14-eicosatetraenoic acid], the “Relative differences: effect” value in the assay on fibroblasts is on record as “+”. Further, in assay [1], the “Relative effect on serum protein adhesion and monocyte activation” value was “++”. The “Relative effect on collagen-1 production” value in the assay on human dermal fibroblasts is “+”.
`CCC=CCC=C(CC=CCC=CCC=CCC=C(CCC(=O)O)[N+](=O)[O-])[N+](=O)[O-]` [compound 19, 4,16-nitro-docosahexaenoic acid]: the “Relative differences: effect” value in the assay on fibroblasts is “+”. Further, in assay [1], the “Relative effect on serum protein adhesion and monocyte activation” value is recorded as “+”. Moreover, in the assay on human dermal fibroblasts, the “Relative effect on collagen-1 production” value is listed as “+”.
On to `CCCCCCCCCCC/C=C(/CCCCC(=O)O)[N+](=O)[O-]` [compound 21, 6-nitro-cis-6-octadecenoic acid], for which the “Relative effect on serum protein adhesion and monocyte activation” value in assay [1] was determined as 0. Moreover, the “Relative effect of surface coating” value in assay [2] is recorded as “+”. Moreover, in the assay with human dermal fibroblasts, the “Relative effect on collagen-1 production” value is “++”.
